In US10626349B2, “Cleavable surfactants” (PROMEGA CORPORATION, priority 2007, dated 2020):

Experiments:
[1] = biological target: T1, Myoglobin from horse heart digested with trypsin (Equus caballus, UniProt P68082); test: Myoglobin/Trypsin digest, HPLC peak area versus RapiGest control; format: biochemical; conditions: 0.01% surfactant, trypsin 50:1, 20 minutes at 37° C.; ratio to RapiGest control, >1 = more digestion
T1 construct: Myoglobin from horse heart; from tissue; host or cells: horse heart
T1 sequence (P68082 2-154 limits assumed): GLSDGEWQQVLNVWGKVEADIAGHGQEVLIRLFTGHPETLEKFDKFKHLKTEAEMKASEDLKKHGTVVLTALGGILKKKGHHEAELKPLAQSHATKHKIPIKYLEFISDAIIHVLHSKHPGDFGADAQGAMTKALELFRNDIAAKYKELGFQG
Protocol: Myoglobin from horse heart (typically 25 μs) was digested with trypsin (Promega) at a 50:1 ratio in a volume of 125 μL (typical) of 50 mM Ammonium bicarbonate for 20 minutes at 37° C. with 0.01% RapiGest™ surfactant or 0.01% of the indicated compound of the invention (upper and lower chromatograms, respectively). TFA was added to 0.5-2% and the mixtures were incubated at 37° C. or 65° C. for 20 or 30 minutes. Degraded surfactant was removed by centrifugation at 14,000×g for 5 minutes. HPLC analysis was performed on a 25-50 μL reaction sample using an HP1050 LC system with an Agilent Sorbax SB-C18 column (3.0×100 mm, 3.5 micron) and a gradient of 0.1% TFA (97.5% initial) and Acetonitrile, 0.01% TFA (55% final condition followed by a 100% wash step) and a flow rate of 0.75 mL/min. Peptides were detected at 214 and 280 nm.
(§1) For each compound numbered below in Example 12, the rate of enhanced digestion was determined from the ratio of the surfactant peak area (surfactant # Pk. Area) to the Rapigest™ surfactant peak area (RG Pk area). Peak area was determined as the sum of all peaks integrated from 8-22 minutes.

[2] = Solubility of the surfactant
[3] = Acid and thermal degradation of the surfactant; conditions: for degradation after overnight incubation (in words): concentration not given; for thermolability (in words): 3266: 5 minutes at 95° C.; for acid-lability (in words): 0.5% TFA at 37° C. where stated (3237: 30 minutes), 3271 by TLC analysis
[4] = biological target: T2, Bacteriorhodopsin digested with chymotrypsin (Halobacterium salinarum, UniProt P02945); test: Bacteriorhodopsin/Chymotrypsin digest, HPLC peak area versus RapiGest control; format: biochemical; conditions: 0.025% surfactant
T2 sequence (P02945 14-261 limits assumed): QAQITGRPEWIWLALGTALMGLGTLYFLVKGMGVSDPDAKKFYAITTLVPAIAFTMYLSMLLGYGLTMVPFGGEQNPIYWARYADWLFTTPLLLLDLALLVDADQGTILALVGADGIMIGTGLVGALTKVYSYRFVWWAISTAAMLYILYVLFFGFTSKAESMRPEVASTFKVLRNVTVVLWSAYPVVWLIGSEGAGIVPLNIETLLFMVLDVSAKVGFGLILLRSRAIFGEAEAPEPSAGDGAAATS
Protocol: Bacteriorhodopsin (25 μs) was heated with 0.025% Rapigest™ surfactant or the indicated compound of the invention for 5 minutes at 95° C., then digested with chymotrypsin (Sigma) at a 10:1 ratio in 125 μL 50 mM Ammonium bicarbonate for 1 hour at 37° C. After one hour TFA was added to 0.5-2% and the mixtures were incubated at 37° C. or 65° C. for 20 or 30 minutes. Degraded surfactant was removed by centrifugation at 14,000×g for 5 minutes. An aliquot of 50-100 μL of digested protein was analyzed by HPLC as described above.
Compound 3211, 3212, 3224 and Rapigest™ surfactant control for FIG. 13C reactions: Bacteriorhodopsin (25 μs) was solubilized with 0.025% compound of interest for 1-2 minutes at room temperature, then digested with chymotrypsin (Sigma) at a 10:1 ratio in 125 μL 50 mM Ammonium bicarbonate for 1 hour at 37° C. After one hour TFA was added to 0.5-2% and the mixtures were incubated at 37° C. or 65° C. for 20 or 30 minutes. Degraded surfactant was removed by centrifugation at 14,000×g for 5 minutes. An aliquot of 50-100 μL of digested protein was analyzed by HPLC as described above.
as §1

[5] = Hydrolytic stability in 50 mM ammonium bicarbonate (reverse-phase HPLC); format: physicochemical
Protocol: Hydrolytic stability was measured by monitoring the change in retention time of the intact surfactant by reverse-phase HPLC. The ½-life is defined as the time required to reach 50% degradation.

[6] = BR heated (boiled) with surfactant 5 minutes at 95° C., chymotrypsin 10:1, 1 hour at 37° C., ratio to RapiGest control
[7] = surfactant conc. 0.0025% in 50 mM ammonium bicarbonate
[8] = surfactant conc. 0.025% in 50 mM ammonium bicarbonate

SMILES | surfactant Pk area/RG Pk area, Myoglobin/Trypsin digest [1] | solubility in aqueous solutions (concentration dissolved to) ([2]; aqueous solution) [%] | surfactant Pk area/RG Pk area, Bacteriorhodopsin/Chymotrypsin digest [4, 6] | also measured
CCCCCCCCCCCC(C)(C)OC(=O)Nc1ccc(N(CCCCS(=O)(=O)[O-])CCCCS(=O)(=O)O)cc1.[Na+] [Compound 3194] | 0.72 | 0.5 | 1.1 | degradation after overnight incubation (in words) [3]: No degradation was observed even after overnight incubation
CCCCCCCCCCC(OC(=O)NCCCS(=O)(=O)O)c1ccc(C(F)(F)F)cc1 (centres unmarked) [Compound 3200] | 0.7 | ~0.01 | 0.8 | degradation after overnight incubation (in words) [3]: No degradation was observed even after overnight incubation
CCCCCCOc1ccc(C(OCCCS(=O)(=O)[O-])(c2ccccc2)c2ccccc2)cc1.[Na+] [Compound 3202] | 1.1 | ~0.01 | 0.6 | time to degradation of 0.01% solution ([3]; 0.01% solution, 37° C. where stated): ≤ 30 min
CCCCCCCC(C)(C)OC(=O)NCC(O)CS(=O)(=O)O (centres unmarked) [Compound 3204] | 0.87 | 0.5 | 0.55 | degradation rate (grade in words) [3]: moderate
CCCCCCCCCOCC(C)(C)OC(=O)NCCCS(=O)(=O)O [Compound 3205] | 0.3 | 0.5 | 0.45 | degradation after overnight incubation (in words) [3]: No degradation was observed even after overnight incubation
CCCCCCCCCSCC(C)(C)OC(=O)NCCCS(=O)(=O)O [Compound 3206] | 0.26 | 0.5 | 0.8 | degradation rate (grade in words) [3]: moderate
CCCCCCCCCCCCCCC(OC(=O)NCCCS(=O)(=O)[O-])c1ccc(OC)cc1.[Na+] (centres unmarked) [Compound 3213] | 0.8 | 0.025 | 1.3 | ½-life [5, 7]: 62 h; ½-life [5, 8]: 128 h
CCCCCCCCCCOc1ccc(C(OCCN(CCCCS(=O)(=O)[O-])CCCCS(=O)(=O)[O-])(c2ccccc2)c2ccccc2)cc1.[Na+].[Na+] [Compound 3215] | 0.56 | 1 | 1.2 | time to degradation in 0.5% TFA ([3]; 0.1% solution): 1 h; thermolability (in words) [3]: moderate thermolability
CCCCCCCCCCOc1ccc(C(OCCN(CCCCS(=O)(=O)[O-])CCCCS(=O)(=O)[O-])(c2ccccc2)c2ccc(OC)cc2)cc1.[Na+].[Na+] (centres unmarked) [Compound 3220] | 0.2 | 1 | 0.8 | time to degradation in 0.5% TFA ([3]; 37° C. where stated, 0.1% solution for 3220 and 3266): ≤ 0.25 h; thermolability (in words) [3]: moderate thermolability
CCCCCCCCCCCCC(OC(=O)NCCCS(=O)(=O)O)c1ccco1 (centres unmarked) [Compound 3224] | 1.3 | 0.25 | – | ½-life [5, 7]: 1.3 h; ½-life [5, 8]: 8.3 h; ½-life ([5]; surfactant conc. 0.10% in 50 mM ammonium bicarbonate): 23 h; ½-life ([5]; surfactant conc. 0.25% in 50 mM ammonium bicarbonate): 22 h; solubility after adding ACN ([2]; ACN added to 20%): 2%; surfactant Pk area/RG Pk area, Bacteriorhodopsin/Chymotrypsin digest ([4]; BR solubilized at room temperature (not boiled), RapiGest control boiled): 0.74
CCCCCCCCCCC1COC(c2cc(OCCCS(=O)(=O)[O-])ccc2[N+](=O)[O-])O1.[Na+] (centres unmarked) [Compound 3225] | 1.1 | – | 0.9 | solubilized in DMSO to ([2]; 100% DMSO): 10%; solubility in aqueous solutions (in words) ([2]; aqueous solution): Not soluble in aqueous solutions; acid-lability (in words) [3]: slowly degrades in 0.5% TFA at 37 °C; thermolability (in words) [3]: No thermolability was observed
CCCCCCCCCCC1COC(c2cccc(OCCCS(=O)(=O)[O-])c2)O1.[Na+] (centres unmarked) [Compound 3228] | 1.4 | 1 | 1.2 | degradation rate (grade in words) [3]: low
CCCCCCCCCCC(OC(=O)NCCCS(=O)(=O)O)c1cc(OC)cc(OC)c1 (centres unmarked) [Compound 3236] | 1.4 | 1 | 0.71 | degradation by acid (0.5% TFA) or by heat (boiling), in words ([3]; 3236: 0.1% solution in 0.5% TFA 30 minutes at 37° C. or 5 minutes of boiling without TFA): no degradation was observed
CCCCCCCCCCC(OC(=O)NCCCS(=O)(=O)O)c1ccccc1OC (centres unmarked) [Compound 3237] | 1.4 | 0.5 | 1 | acid-lability (in words) [3]: Moderate degradation was observed
